Results from ChEMBL document CHEMBL3352227, “Synthesis, antimycobacterial and antibacterial evaluation of l-[(1R, 2S)-2-fluorocyclopropyl]fluoroquinolone derivatives containing an oxime functional moiety” (Eur J Med Chem, 2014).
≈ marks a conversion by molar mass, not a printed value.

Assays:
Format in all cases: functional
Klebsiella pneumoniae [1] = assay: Antibacterial activity against Klebsiella pneumoniae 12-2 after 18 to 24 hrs by standard twofold serial dilution method
Escherichia coli [2] = assay: Antibacterial activity against Escherichia coli ATCC 25922 after 18 to 24 hrs by standard twofold serial dilution method
Escherichia coli [3] = assay: Antibacterial activity against extended-spectrum beta-lactamase producing Escherichia coli 12-2 after 18 to 24 hrs by standard twofold serial dilution method
[4] = system: Staphylococcus epidermidis; assay: Antibacterial activity against methicillin-sensitive Staphylococcus epidermidis 12-1 after 18 to 24 hrs by standard twofold serial dilution method
Staphylococcus aureus [5] = assay: Antibacterial activity against methicillin-resistant Staphylococcus aureus 12-4 after 18 to 24 hrs by standard twofold serial dilution method
Klebsiella pneumoniae [6] = assay: Antibacterial activity against Klebsiella pneumoniae 12-4 after 18 to 24 hrs by standard twofold serial dilution method
[7] = system: Staphylococcus epidermidis; assay: Antibacterial activity against methicillin-sensitive Staphylococcus epidermidis 12-6 after 18 to 24 hrs by standard twofold serial dilution method
Staphylococcus aureus [8] = assay: Antibacterial activity against methicillin-sensitive Staphylococcus aureus 12-5 after 18 to 24 hrs by standard twofold serial dilution method
Streptococcus pneumoniae [9] = assay: Antibacterial activity against Streptococcus pneumoniae 12-18 after 18 to 24 hrs by standard twofold serial dilution method
Staphylococcus aureus [10] = assay: Antibacterial activity against methicillin-sensitive Staphylococcus aureus 12-4 after 18 to 24 hrs by standard twofold serial dilution method
Streptococcus pneumoniae [11] = assay: Antibacterial activity against Streptococcus pneumoniae ATCC 49619 after 18 to 24 hrs by standard twofold serial dilution method
[12] = system: Staphylococcus epidermidis; assay: Antibacterial activity against methicillin-sensitive Staphylococcus epidermidis 12-8 after 18 to 24 hrs by standard twofold serial dilution method
Klebsiella pneumoniae [13] = assay: Antibacterial activity against Klebsiella pneumoniae 12-1 after 18 to 24 hrs by standard twofold serial dilution method
Staphylococcus aureus [14] = assay: Antibacterial activity against methicillin-resistant Staphylococcus aureus 12-2 after 18 to 24 hrs by standard twofold serial dilution method
[15] = system: Staphylococcus epidermidis; assay: Antibacterial activity against methicillin-resistant Staphylococcus epidermidis 12-1 after 18 to 24 hrs by standard twofold serial dilution method
Staphylococcus aureus [16] = assay: Antibacterial activity against methicillin-sensitive Staphylococcus aureus 12-1 after 18 to 24 hrs by standard twofold serial dilution method
[17] = system: Staphylococcus epidermidis; assay: Antibacterial activity against methicillin-resistant Staphylococcus epidermidis 12-6 after 18 to 24 hrs by standard twofold serial dilution method
Escherichia coli [18] = assay: Antibacterial activity against Escherichia coli 12-1 after 18 to 24 hrs by standard twofold serial dilution method
Staphylococcus aureus [19] = assay: Antibacterial activity against Staphylococcus aureus ATCC 25923 after 18 to 24 hrs by standard twofold serial dilution method
[20] = system: Mycobacterium tuberculosis; assay: Antimycobacterial activity against Mycobacterium tuberculosis H37Rv ATCC 27294 by MABA method
Klebsiella pneumoniae [21] = assay: Antibacterial activity against extended-spectrum beta-lactamase producin Klebsiella pneumoniae 12-14 after 18 to 24 hrs by standard twofold serial dilution method
Staphylococcus aureus [22] = assay: Antibacterial activity against methicillin-resistant Staphylococcus aureus 12-5 after 18 to 24 hrs by standard twofold serial dilution method
[23] = system: Staphylococcus epidermidis; assay: Antibacterial activity against methicillin-sensitive Staphylococcus epidermidis 12-3 after 18 to 24 hrs by standard twofold serial dilution method
Klebsiella pneumoniae [24] = assay: Antibacterial activity against extended-spectrum beta-lactamase producin Klebsiella pneumoniae 12-4 after 18 to 24 hrs by standard twofold serial dilution method
Klebsiella pneumoniae [25] = assay: Antibacterial activity against extended-spectrum beta-lactamase producin Klebsiella pneumoniae 12-3 after 18 to 24 hrs by standard twofold serial dilution method
Staphylococcus aureus [26] = assay: Antibacterial activity against methicillin-sensitive Staphylococcus aureus 12-2 after 18 to 24 hrs by standard twofold serial dilution method
Klebsiella pneumoniae [27] = assay: Antibacterial activity against extended-spectrum beta-lactamase producin Klebsiella pneumoniae 12-7 after 18 to 24 hrs by standard twofold serial dilution method
Escherichia coli [28] = assay: Antibacterial activity against extended-spectrum beta-lactamase producing Escherichia coli 12-3 after 18 to 24 hrs by standard twofold serial dilution method
Escherichia coli [29] = assay: Antibacterial activity against extended-spectrum beta-lactamase producing Escherichia coli 12-15 after 18 to 24 hrs by standard twofold serial dilution method
Pseudomonas aeruginosa [30] = assay: Antibacterial activity against Pseudomonas aeruginosa 12-12 after 18 to 24 hrs by standard twofold serial dilution method
Escherichia coli [31] = assay: Antibacterial activity against extended-spectrum beta-lactamase producing Escherichia coli 12-14 after 18 to 24 hrs by standard twofold serial dilution method
Pseudomonas aeruginosa [32] = assay: Antibacterial activity against Pseudomonas aeruginosa 12-14 after 18 to 24 hrs by standard twofold serial dilution method

Compound | MIC (Klebsiella pneumoniae [1]) | MIC (Escherichia coli [2]) | MIC [4] | MIC (Staphylococcus aureus [5]) | MIC (Klebsiella pneumoniae [6]) | MIC [7] | MIC (Staphylococcus aureus [8]) | MIC (Streptococcus pneumoniae [9]) | MIC (Staphylococcus aureus [10]) | MIC (Streptococcus pneumoniae [11]) | MIC [12] | MIC (Klebsiella pneumoniae [13]) | MIC (Staphylococcus aureus [14]) | MIC [15] | MIC (Staphylococcus aureus [16]) | MIC [17] | MIC (Staphylococcus aureus [19]) | MIC [20] | MIC (Klebsiella pneumoniae [21]) | MIC (Staphylococcus aureus [22]) | further results
CO/N=C1/CN(c2nc3c(cc2F)c(=O)c(C(=O)O)cn3[C@@H]2C[C@@H]2F)[C@@H]1CN | 0.5 µg/mL (≈ 1.27 µM) | 0.25 µg/mL (≈ 0.636 µM) | 0.5 µg/mL (≈ 1.27 µM) | > 128 µg/mL | 0.5 µg/mL (≈ 1.27 µM) | 0.5 µg/mL (≈ 1.27 µM) | 0.5 µg/mL (≈ 1.27 µM) | 4 µg/mL (≈ 10.2 µM) | 0.5 µg/mL (≈ 1.27 µM) | 1 µg/mL (≈ 2.54 µM) | 32 µg/mL (≈ 81.4 µM) | 1 µg/mL (≈ 2.54 µM) | > 128 µg/mL | 64 µg/mL (≈ 163 µM) | 1 µg/mL (≈ 2.54 µM) | 64 µg/mL (≈ 163 µM) | 0.25 µg/mL (≈ 0.636 µM) | 4 µg/mL (≈ 10.2 µM) | 128 µg/mL (≈ 325 µM) | > 128 µg/mL | MIC (Escherichia coli [3]): > 128 µg/mL; MIC (Escherichia coli [18]): 2 µg/mL (≈ 5.08 µM); MIC [23]: 0.5 µg/mL (≈ 1.27 µM); MIC (Klebsiella pneumoniae [24]): 16 µg/mL (≈ 40.7 µM); MIC (Klebsiella pneumoniae [25]): > 128 µg/mL; MIC (Staphylococcus aureus [26]): 0.5 µg/mL (≈ 1.27 µM); MIC (Klebsiella pneumoniae [27]): 4 µg/mL (≈ 10.2 µM); MIC (Escherichia coli [28]): 16 µg/mL (≈ 40.7 µM); MIC (Escherichia coli [29]): > 128 µg/mL; MIC (Pseudomonas aeruginosa [30]): 2 µg/mL (≈ 5.08 µM); MIC (Escherichia coli [31]): > 128 µg/mL; MIC (Pseudomonas aeruginosa [32]): 128 µg/mL (≈ 325 µM)
CCO/N=C1/CN(c2nc3c(cc2F)c(=O)c(C(=O)O)cn3[C@@H]2C[C@@H]2F)[C@@H]1CN | 1 µg/mL (≈ 2.45 µM) | 0.5 µg/mL (≈ 1.23 µM) | 0.5 µg/mL (≈ 1.23 µM) | > 128 µg/mL | 1 µg/mL (≈ 2.45 µM) | 0.5 µg/mL (≈ 1.23 µM) | 0.5 µg/mL (≈ 1.23 µM) | 8 µg/mL (≈ 19.6 µM) | 0.25 µg/mL (≈ 0.614 µM) | 2 µg/mL (≈ 4.91 µM) | 32 µg/mL (≈ 78.6 µM) | 1 µg/mL (≈ 2.45 µM) | > 128 µg/mL | 64 µg/mL (≈ 157 µM) | 0.5 µg/mL (≈ 1.23 µM) | 32 µg/mL (≈ 78.6 µM) | 0.25 µg/mL (≈ 0.614 µM) | 4 µg/mL (≈ 9.82 µM) | > 128 µg/mL | > 128 µg/mL | MIC (Escherichia coli [3]): > 128 µg/mL; MIC (Escherichia coli [18]): 2 µg/mL (≈ 4.91 µM); MIC [23]: 2 µg/mL (≈ 4.91 µM); MIC (Klebsiella pneumoniae [24]): 32 µg/mL (≈ 78.6 µM); MIC (Klebsiella pneumoniae [25]): > 128 µg/mL; MIC (Staphylococcus aureus [26]): 0.5 µg/mL (≈ 1.23 µM); MIC (Klebsiella pneumoniae [27]): 8 µg/mL (≈ 19.6 µM); MIC (Escherichia coli [28]): 32 µg/mL (≈ 78.6 µM); MIC (Escherichia coli [29]): > 128 µg/mL; MIC (Pseudomonas aeruginosa [30]): 4 µg/mL (≈ 9.82 µM); MIC (Escherichia coli [31]): > 128 µg/mL; MIC (Pseudomonas aeruginosa [32]): 128 µg/mL (≈ 314 µM)
NC[C@@H]1/C(=N\OCc2ccccc2)CN1c1nc2c(cc1F)c(=O)c(C(=O)O)cn2[C@@H]1C[C@@H]1F | 1 µg/mL (≈ 2.13 µM) | 0.5 µg/mL (≈ 1.07 µM) | 0.5 µg/mL (≈ 1.07 µM) | 128 µg/mL (≈ 273 µM) | 1 µg/mL (≈ 2.13 µM) | 0.5 µg/mL (≈ 1.07 µM) | 0.25 µg/mL (≈ 0.533 µM) | 4 µg/mL (≈ 8.52 µM) | 0.25 µg/mL (≈ 0.533 µM) | 1 µg/mL (≈ 2.13 µM) | 32 µg/mL (≈ 68.2 µM) | 1 µg/mL (≈ 2.13 µM) | 128 µg/mL (≈ 273 µM) | 32 µg/mL (≈ 68.2 µM) | 0.5 µg/mL (≈ 1.07 µM) | 32 µg/mL (≈ 68.2 µM) | 0.5 µg/mL (≈ 1.07 µM) | 2 µg/mL (≈ 4.26 µM) | 128 µg/mL (≈ 273 µM) | 128 µg/mL (≈ 273 µM) | MIC (Escherichia coli [3]): > 128 µg/mL; MIC (Escherichia coli [18]): 4 µg/mL (≈ 8.52 µM); MIC [23]: 1 µg/mL (≈ 2.13 µM); MIC (Klebsiella pneumoniae [24]): 32 µg/mL (≈ 68.2 µM); MIC (Klebsiella pneumoniae [25]): > 128 µg/mL; MIC (Staphylococcus aureus [26]): 0.25 µg/mL (≈ 0.533 µM); MIC (Klebsiella pneumoniae [27]): 8 µg/mL (≈ 17 µM); MIC (Escherichia coli [28]): 16 µg/mL (≈ 34.1 µM); MIC (Escherichia coli [29]): > 128 µg/mL; MIC (Pseudomonas aeruginosa [30]): 8 µg/mL (≈ 17 µM); MIC (Escherichia coli [31]): > 128 µg/mL; MIC (Pseudomonas aeruginosa [32]): 128 µg/mL (≈ 273 µM)
O=C(O)c1cn(C2CC2)c2cc(N3CCNCC3)c(F)cc2c1=O [CIPROFLOXACIN] | 0.03 µg/mL (≈ 0.0905 µM) | < 0.008 µg/mL | 0.25 µg/mL (≈ 0.754 µM) | 64 µg/mL (≈ 193 µM) | < 0.008 µg/mL | 0.25 µg/mL (≈ 0.754 µM) | 0.25 µg/mL (≈ 0.754 µM) | 1 µg/mL (≈ 3.02 µM) | 0.25 µg/mL (≈ 0.754 µM) | 0.25 µg/mL (≈ 0.754 µM) | 4 µg/mL (≈ 12.1 µM) | 0.125 µg/mL (≈ 0.377 µM) | 64 µg/mL (≈ 193 µM) | 8 µg/mL (≈ 24.1 µM) | 0.25 µg/mL (≈ 0.754 µM) | 16 µg/mL (≈ 48.3 µM) | 0.25 µg/mL (≈ 0.754 µM) | 0.25 µg/mL (≈ 0.754 µM) | 64 µg/mL (≈ 193 µM) | 32 µg/mL (≈ 96.6 µM) | MIC [23]: 2 µg/mL (≈ 6.04 µM); MIC (Klebsiella pneumoniae [24]): 4 µg/mL (≈ 12.1 µM); MIC (Klebsiella pneumoniae [25]): 32 µg/mL (≈ 96.6 µM); MIC (Staphylococcus aureus [26]): 0.25 µg/mL (≈ 0.754 µM); MIC (Klebsiella pneumoniae [27]): 0.5 µg/mL (≈ 1.51 µM); MIC (Escherichia coli [29]): 64 µg/mL (≈ 193 µM); MIC (Pseudomonas aeruginosa [32]): 32 µg/mL (≈ 96.6 µM)
